The text below walks through data of patent US6469067B1, “Combinations” (Novartis AG, priority 1999, dated 2002).

This assay has as its system Dermanyssus gallinae. As to the kind of experiment: In vitro effect on Dermanyssus gallinae. The conditions noted are these: single component; for activity in terms of preventing oviposition, component alone: at 0.32 and 10 ppm. How it is done:
For the sake of simplicity, the chicken mite Dermanyssus gallinae is used. This is a good model for determining the effect on ticks.
In vitro Effect on Dermanyssus gallinae
The test is carried out with serial dilutions [avermectin component in concentrations of (32), 10, 3.2, 1.0, 0.32 to 0.0001 ppm; the 1-[4-chloro-3-(3-chlor-5-trifluoromethyl-2-pyridyloxy)phenyl]-3-(2,6-difluorobenzoyl)urea in concentrations of 100, 32, 10, 3.2, 1.0, 0.32 and 0.1 ppm]. For the test, the lowest concentration of one active substance is combined with the lowest concentration of the other active substance, and the limits of activity thus worked out. Ten fully engorged female mites of the genus Dermanyssus gallinae adhered to a plastic adhesive film are brought into contact with 50 μl of an aqueous suspension or emulsion of the test combination in question. After drying, the film is stuck onto a glass disc. This creates a kind of air bubble around each mite, the lower surface of which is formed by the glass disc and the upper surface by a bulging of the adhesive film. This bubble contains sufficient air for the mite to avoid suffocating. After 5 days, the effect of the test substance is evaluated with the aid of a stereomicroscope by assessing the effect on mortality, oviposition, egg quality, hatching rate, pupation rate, and development of protonymphs according to the following 4 criteria:
1) if 9 to 10 mites are dead, this indicates a lethal effect (characterised by M);
3) if 2 or more mites survive and produce eggs, but no larvae hatch from these eggs and no protonymphs develop, this indicates a development-inhibiting effect (H);
4)if 2 or more mites survive and lay the usual number of normal eggs, from which larvae hatch and develop into protonymphs, this indicates no activity (−).
In each test, two basic suspensions/emulsions (without active ingredient) and one suspension/emulsion with only one of each component are also tested in the corresponding concentrations.
The test is repeated three times with the following combinations and the results determined. The final result is given in Tables 1 to 3, whereby in the tables marked with a the combinations from the prior art are listed and in the tables marked with b the results of the combinations according to the invention are listed.

Regarding `O=C(NC(=O)c1c(F)cccc1F)Nc1cc(Cl)c(Oc2ncc(C(F)(F)F)cc2Cl)c(Cl)c1` [A, chlorfluazuron], under “all tested concentrations”, the “activity against Dermanyssus gallinae, component alone” value was “no activity at any concentration”.

For the compound `O=C(NC(=O)c1c(F)cccc1F)Nc1ccc(Cl)c(Oc2ncc(C(F)(F)F)cc2Cl)c1` [B, 1-[4-chloro-3-(3-chloro-5-trifluoromethyl-2-pyridyloxy)phenyl]-3-(2,6-difluorobenzoyl)urea], the “concentration up to which oviposition is prevented, component alone” value came out at 0.01 ppm.

Turning to `CO[C@H]1C[C@H](O[C@H]2[C@H](C)O[C@@H](O[C@@H]3/C(C)=C/C[C@@H]4C[C@@H](C[C@]5(C=C[C@H](C)[C@@H](C6CCCCC6)O5)O4)OC(=O)[C@@H]4C=C(C)[C@@H](O)[C@H]5OC/C(=C\C=C\[C@@H]3C)[C@]54O)C[C@@H]2OC)O[C@@H](C)[C@@H]1O` [Doramectin], the “activity in terms of preventing oviposition, component alone” value (from here on “activity in terms”) is recorded as “full activity”.

For the compound `CO/N=C1\C[C@]2(C[C@@H]3C[C@@H](C/C=C(\C)C[C@@H](C)/C=C/C=C4\CO[C@@H]5[C@H](O)C(C)=C[C@@H](C(=O)O3)[C@]45O)O2)O[C@H](/C(C)=C/C(C)C)[C@H]1C` [Moxidectin], the “activity in terms” value was “full activity”.

As to Ivermectin, the “activity in terms” value was “full activity”.
